The nature of assay [1]: Inhibition of N-terminal hexa-histidine tagged NSD3 SET domain (1066 to 1288 residues) (unknown origin) expressed in Escherichia coli incubated for 4 hrs by ITC method. Set-up: species or system Homo sapiens. For orientation: ITC needs no label: the signal is the heat of the interaction.
For assay [2], the target named is T1, Histone-lysine N-methyltransferase, H3 lysine-36 specific (Homo sapiens, UniProt Q96L73). Nature of the assay: Inhibition of NSD1 SET domain (1852 to 2105 residues) (unknown origin) expressed in Escherichia coli BL21 (DE3).
T1 sequence (Q96L73 whole entry, the tested form may be a part): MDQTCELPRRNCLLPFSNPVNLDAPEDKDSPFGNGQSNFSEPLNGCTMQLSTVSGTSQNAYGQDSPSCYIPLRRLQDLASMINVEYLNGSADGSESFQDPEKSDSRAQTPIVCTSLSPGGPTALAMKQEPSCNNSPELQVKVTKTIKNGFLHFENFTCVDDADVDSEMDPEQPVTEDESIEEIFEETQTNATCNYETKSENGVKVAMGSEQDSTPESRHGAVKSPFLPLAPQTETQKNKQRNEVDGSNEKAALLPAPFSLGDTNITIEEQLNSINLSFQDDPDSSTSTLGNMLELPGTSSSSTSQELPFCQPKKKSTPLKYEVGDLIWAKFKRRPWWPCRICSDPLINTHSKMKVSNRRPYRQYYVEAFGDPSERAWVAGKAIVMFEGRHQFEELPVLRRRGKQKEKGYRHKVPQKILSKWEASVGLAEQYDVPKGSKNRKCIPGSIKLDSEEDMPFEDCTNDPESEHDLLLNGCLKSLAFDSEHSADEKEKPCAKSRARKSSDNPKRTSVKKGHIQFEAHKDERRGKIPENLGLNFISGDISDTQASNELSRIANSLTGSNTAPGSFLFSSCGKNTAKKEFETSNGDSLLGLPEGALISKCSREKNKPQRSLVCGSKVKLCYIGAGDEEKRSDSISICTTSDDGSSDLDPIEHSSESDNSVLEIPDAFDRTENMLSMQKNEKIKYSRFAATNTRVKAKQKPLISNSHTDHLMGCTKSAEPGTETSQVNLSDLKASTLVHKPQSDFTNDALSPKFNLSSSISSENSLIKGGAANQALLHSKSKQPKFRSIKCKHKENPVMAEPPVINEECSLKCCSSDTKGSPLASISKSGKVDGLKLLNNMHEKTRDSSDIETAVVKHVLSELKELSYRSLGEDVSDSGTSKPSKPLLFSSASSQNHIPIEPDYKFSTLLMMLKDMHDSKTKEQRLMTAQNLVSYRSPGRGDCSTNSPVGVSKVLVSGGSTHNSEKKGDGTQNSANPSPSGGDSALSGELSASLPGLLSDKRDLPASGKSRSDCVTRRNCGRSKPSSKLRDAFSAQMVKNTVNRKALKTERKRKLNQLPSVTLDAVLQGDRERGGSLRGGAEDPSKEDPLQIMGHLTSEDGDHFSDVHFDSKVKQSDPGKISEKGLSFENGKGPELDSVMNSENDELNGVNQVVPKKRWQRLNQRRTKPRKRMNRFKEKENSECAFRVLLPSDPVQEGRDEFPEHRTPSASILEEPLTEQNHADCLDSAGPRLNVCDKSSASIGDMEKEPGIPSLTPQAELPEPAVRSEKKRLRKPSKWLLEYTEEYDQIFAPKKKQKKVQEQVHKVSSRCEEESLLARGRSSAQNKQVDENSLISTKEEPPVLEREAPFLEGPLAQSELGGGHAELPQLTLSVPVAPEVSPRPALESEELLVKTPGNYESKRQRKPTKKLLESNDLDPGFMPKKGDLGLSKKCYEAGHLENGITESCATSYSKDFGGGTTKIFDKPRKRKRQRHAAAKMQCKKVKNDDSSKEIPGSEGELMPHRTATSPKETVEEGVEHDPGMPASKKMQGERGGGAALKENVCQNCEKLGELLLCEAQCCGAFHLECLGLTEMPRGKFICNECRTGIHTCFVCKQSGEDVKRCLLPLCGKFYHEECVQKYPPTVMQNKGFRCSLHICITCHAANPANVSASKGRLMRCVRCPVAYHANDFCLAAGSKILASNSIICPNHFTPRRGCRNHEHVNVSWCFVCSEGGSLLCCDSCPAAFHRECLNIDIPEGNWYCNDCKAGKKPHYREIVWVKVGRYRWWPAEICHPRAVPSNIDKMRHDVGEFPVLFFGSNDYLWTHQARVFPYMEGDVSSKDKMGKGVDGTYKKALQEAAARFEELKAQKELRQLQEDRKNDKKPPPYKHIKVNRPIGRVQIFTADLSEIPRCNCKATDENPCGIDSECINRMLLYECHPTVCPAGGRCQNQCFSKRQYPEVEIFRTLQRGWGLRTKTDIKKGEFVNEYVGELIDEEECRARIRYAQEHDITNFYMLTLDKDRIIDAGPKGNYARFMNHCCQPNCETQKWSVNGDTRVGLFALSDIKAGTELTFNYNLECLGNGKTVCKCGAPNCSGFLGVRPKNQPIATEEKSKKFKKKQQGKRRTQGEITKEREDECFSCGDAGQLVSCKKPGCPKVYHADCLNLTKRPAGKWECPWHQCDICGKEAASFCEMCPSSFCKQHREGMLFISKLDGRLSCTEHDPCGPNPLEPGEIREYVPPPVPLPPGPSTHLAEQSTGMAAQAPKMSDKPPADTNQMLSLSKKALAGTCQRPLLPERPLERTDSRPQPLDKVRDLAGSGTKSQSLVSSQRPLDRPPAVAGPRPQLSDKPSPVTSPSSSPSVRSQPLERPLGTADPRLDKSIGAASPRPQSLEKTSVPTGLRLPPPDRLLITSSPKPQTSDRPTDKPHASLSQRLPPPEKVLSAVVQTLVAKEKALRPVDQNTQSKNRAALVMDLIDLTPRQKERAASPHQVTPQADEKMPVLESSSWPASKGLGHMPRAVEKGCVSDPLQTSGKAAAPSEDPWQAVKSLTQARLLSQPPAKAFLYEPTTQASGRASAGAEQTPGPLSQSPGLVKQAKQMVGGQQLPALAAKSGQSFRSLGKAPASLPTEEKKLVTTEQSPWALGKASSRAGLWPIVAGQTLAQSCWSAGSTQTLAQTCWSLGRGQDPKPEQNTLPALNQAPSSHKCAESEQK
Assay [3] concerns the target T1, Histone-lysine N-methyltransferase, H3 lysine-36 specific. Nature of the assay: Inhibition of human recombinant NSD1 incubated for 2 hrs by AlphaLISA method. (Bead proximity is the source of the signal in Alpha formats.)
The target of assay [4] is T2, Histone-lysine N-methyltransferase NSD2 (Homo sapiens) (UniProt O96028).
T2 sequence (whole entry): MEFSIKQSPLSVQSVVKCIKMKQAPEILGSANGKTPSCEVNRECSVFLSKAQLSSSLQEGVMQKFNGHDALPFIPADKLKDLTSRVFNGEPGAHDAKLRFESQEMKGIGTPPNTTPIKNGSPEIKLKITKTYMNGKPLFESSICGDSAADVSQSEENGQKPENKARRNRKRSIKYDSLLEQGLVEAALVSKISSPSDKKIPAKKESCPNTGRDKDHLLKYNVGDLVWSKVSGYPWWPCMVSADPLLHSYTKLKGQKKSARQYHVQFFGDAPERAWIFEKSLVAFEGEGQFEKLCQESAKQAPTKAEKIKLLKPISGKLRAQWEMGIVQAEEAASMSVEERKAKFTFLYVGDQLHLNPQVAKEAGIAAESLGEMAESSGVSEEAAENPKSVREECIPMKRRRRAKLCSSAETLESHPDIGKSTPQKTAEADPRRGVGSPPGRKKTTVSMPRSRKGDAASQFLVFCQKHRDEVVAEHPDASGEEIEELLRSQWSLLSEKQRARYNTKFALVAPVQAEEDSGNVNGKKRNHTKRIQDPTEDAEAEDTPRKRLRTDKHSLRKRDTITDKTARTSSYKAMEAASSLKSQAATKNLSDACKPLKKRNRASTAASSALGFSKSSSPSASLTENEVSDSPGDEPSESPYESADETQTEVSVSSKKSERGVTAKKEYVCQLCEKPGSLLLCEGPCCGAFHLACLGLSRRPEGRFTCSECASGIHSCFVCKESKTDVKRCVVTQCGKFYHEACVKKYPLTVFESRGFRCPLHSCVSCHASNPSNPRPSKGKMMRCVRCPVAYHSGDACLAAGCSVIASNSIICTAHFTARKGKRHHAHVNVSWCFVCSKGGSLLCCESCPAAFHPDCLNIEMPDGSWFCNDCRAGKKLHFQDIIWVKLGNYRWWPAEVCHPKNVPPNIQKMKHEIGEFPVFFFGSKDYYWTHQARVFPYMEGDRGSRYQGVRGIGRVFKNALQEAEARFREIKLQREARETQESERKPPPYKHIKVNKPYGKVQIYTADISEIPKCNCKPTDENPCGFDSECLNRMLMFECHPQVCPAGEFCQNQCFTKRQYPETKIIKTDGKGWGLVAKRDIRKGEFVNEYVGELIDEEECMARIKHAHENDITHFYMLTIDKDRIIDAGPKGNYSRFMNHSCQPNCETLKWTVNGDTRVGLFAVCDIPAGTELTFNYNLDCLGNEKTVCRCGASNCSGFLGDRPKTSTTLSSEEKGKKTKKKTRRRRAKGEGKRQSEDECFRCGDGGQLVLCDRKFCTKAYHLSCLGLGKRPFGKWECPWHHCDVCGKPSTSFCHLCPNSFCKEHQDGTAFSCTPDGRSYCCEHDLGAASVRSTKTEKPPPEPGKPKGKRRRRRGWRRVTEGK
Nature of the assay: Inhibition of NSD2 (unknown origin) at 50 uM relative to control.

The target of assay [5] is T3, Histone-lysine N-methyltransferase NSD3 (Homo sapiens, UniProt Q9BZ95).
T3 sequence (Q9BZ95 whole entry): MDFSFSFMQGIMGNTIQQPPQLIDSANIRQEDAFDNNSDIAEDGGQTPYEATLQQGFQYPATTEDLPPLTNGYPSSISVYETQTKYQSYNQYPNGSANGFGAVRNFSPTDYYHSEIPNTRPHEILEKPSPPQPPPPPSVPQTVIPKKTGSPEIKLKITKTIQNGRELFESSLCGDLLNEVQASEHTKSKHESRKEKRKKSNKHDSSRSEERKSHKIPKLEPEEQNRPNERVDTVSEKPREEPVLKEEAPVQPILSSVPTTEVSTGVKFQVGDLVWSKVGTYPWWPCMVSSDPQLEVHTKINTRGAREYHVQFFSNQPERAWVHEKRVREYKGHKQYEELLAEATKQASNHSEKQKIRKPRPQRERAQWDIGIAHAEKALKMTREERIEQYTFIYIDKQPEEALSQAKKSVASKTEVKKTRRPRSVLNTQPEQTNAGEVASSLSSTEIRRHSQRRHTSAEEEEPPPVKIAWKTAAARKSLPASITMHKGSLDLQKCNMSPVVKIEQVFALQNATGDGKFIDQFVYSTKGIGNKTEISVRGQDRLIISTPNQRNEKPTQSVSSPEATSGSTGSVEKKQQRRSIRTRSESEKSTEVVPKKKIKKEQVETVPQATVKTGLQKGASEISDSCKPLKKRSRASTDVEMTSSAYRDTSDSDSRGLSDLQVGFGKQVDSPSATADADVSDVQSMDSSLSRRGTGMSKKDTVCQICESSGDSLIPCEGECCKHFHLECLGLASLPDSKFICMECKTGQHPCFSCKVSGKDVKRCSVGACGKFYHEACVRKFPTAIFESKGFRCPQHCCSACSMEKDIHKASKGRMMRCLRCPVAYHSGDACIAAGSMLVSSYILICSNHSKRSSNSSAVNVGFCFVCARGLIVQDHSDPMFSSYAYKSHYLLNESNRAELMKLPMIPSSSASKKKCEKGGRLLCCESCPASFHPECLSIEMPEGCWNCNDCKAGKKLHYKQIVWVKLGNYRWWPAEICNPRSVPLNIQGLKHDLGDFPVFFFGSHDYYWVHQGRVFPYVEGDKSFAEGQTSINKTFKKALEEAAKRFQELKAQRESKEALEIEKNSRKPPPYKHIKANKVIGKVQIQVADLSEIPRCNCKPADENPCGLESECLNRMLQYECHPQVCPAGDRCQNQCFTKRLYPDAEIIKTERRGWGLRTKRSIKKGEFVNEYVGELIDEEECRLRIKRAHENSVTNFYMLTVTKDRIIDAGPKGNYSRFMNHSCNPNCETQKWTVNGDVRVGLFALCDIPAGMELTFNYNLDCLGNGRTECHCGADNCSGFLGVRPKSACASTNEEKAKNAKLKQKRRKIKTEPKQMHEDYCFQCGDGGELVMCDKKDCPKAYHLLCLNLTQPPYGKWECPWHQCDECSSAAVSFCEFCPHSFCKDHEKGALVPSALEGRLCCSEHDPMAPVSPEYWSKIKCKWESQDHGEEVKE
Kind of assay: Binding affinity to human recombinant NSD3 PWWP1 domain assessed as dissociation constant.

The target of assay [6] is von Hippel-Lindau disease tumor suppressor/Histone-lysine N-methyltransferase NSD3 (Homo sapiens, UniProt P40337+Q9BZ95). Nature of the assay: Protac activity at VHL/NSD3 in human MOLM-13 cells assessed as induction of NSD3 degradation incubated for 6 hrs by immunoblotting analysis. It is filed as cell-based. On the technique in general: A western blot detects proteins with antibodies after separation by electrophoresis.
von Hippel-Lindau disease tumor suppressor/Histone-lysine N-methyltransferase NSD3, sequence (P40337 whole entry, one chain of several): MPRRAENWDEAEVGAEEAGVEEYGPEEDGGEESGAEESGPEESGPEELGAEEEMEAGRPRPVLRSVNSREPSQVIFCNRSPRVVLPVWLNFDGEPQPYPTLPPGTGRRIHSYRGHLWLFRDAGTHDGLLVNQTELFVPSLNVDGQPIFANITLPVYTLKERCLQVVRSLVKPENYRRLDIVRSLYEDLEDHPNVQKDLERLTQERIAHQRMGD

Assay [7] deals with von Hippel-Lindau disease tumor suppressor/Histone-lysine N-methyltransferase NSD3 (Homo sapiens) (UniProt Q9BZ95+P40337). Nature of the assay: Protac activity at VHL/NSD3 in human MOLM-13 cells assessed as induction of NSD3 degradation incubated for 48 hrs by immunoblotting analysis relative to control. Format: cell-based.
von Hippel-Lindau disease tumor suppressor/Histone-lysine N-methyltransferase NSD3 (Homo sapiens), sequence (P40337 whole entry, looked up, one chain of several): as the sequence (P40337 whole entry, one chain of several) above
Assay [8] has as its target Histone-lysine N-methyltransferase 2A (Homo sapiens) (UniProt Q03164). Nature of the assay: Inhibition of MLL1 (unknown origin) at 10 uM relative to control.
Assay [9] concerns the target T2, Histone-lysine N-methyltransferase NSD2 (Homo sapiens). Nature of the assay: Inhibition of NSD2 (unknown origin) at 10 uM relative to control.
Assay [10] deals with Histone-lysine N-methyltransferase SETDB1 (Homo sapiens) (UniProt Q15047). Kind of assay: Inhibition of SETDB1 (unknown origin) at 10 uM relative to control.
Assay [11] deals with PC-3. Nature of the assay: Antiproliferative activity against human PC-3 cells assessed as cell growth inhibition incubated for 48 hrs by MTT assay. Conditions: PC-3, 48 h. Format: functional, cell-based.
The target of assay [12] is T4, Histone-lysine N-methyltransferase NSD2 (Homo sapiens, UniProt O96028).
T4 sequence (O96028 whole entry): T2 sequence (whole entry)
Kind of assay: Binding affinity to NSD2 PWWP1 domain (unknown origin) assessed as dissociation constant.

Assay [13] deals with T3, Histone-lysine N-methyltransferase NSD3. Kind of assay: Antagonist activity against recombinant human GST-tagged NSD3 PWWP1 domain (247 to 398 residues) expressed in Escherichia coli BL21(DE3) incubated for 60 mins by TR-FRET assay.
Assay [14] has as its system Respiratory syncytial virus. Nature of the assay: Antiviral activity against RSV assessed as viral growth inhibition. Format: functional, organism-based. The settings on record: human respiratory syncytial virus.
The target in assay [15] is T2, Histone-lysine N-methyltransferase NSD2 (Homo sapiens). Nature of the assay: Induction of degradation of NSD2 in human U2OS cells assessed as maximum degradation relative to control. It is filed as cell-based.
For assay [16], the target named is T4, Histone-lysine N-methyltransferase NSD2. Kind of assay: Induction of degradation of NSD2 in human U2OS cells. Format: cell-based.
The target is the same in assay [17]. Kind of assay: Binding affinity to NSD2 PWWP1 domain (unknown origin) assessed as dissociation constant by SPR assay.

The record followed here is ChEMBL document CHEMBL5360652, “Drug Discovery Targeting Nuclear Receptor Binding SET Domain Protein 2 (NSD2)” (J Med Chem, 2023).

pEC50, pIC50, pKd: −log10 of the molar value. Where only a bound is given, the exact number is not on record here.

Consider `CC1CN1c1cc(O)c2nc(N)sc2c1` (stereo unspecified), for which the negative logarithm of the IC50 (pIC50) in assay [1] was 4.84.

`O=C1O[C@@H](C(=O)N2CCN(Cc3nc4sc5c(c4c(=O)[nH]3)CCCC5)CC2)Cc2ccccc21` gave a pIC50 in assay [2] of under 3.00. As to `COC[C@@]1(N)CCCN(c2cnc(-c3cc(Cl)ccc3F)cc2Cn2cnc3c(N)ncnc32)C1`, in assay [3], the pIC50 was 6.61. With `CC(=O)c1ccc(-c2cc(NC(=O)Nc3ccc4nnsc4c3)cc(C(F)(F)F)c2)s1`, the inhibition in assay [4] turned out to be 99%.

On to `Cc1cc(CNCCCC(=O)NCCCCCCCCC(=O)N[C@H](C(=O)N2C[C@H](O)C[C@H]2C(=O)N[C@@H](C)c2ccc(-c3scnc3C)cc2)C(C)(C)C)cc(C)c1-c1ncn(C)c1-c1ccnc2cc(F)ccc12`, for which, in [5], the pKd was 5.89. In addition, in assay [6], the pEC50 was 5.31. Also, the Emax in assay [7] worked out at 80%. For the compound `COC(=O)c1cc(NC(=O)Nc2ccc3nnsc3c2)cc(C(=O)OC)c1`, the inhibition in assay [8] is 79%; in assay [9], 97%; in assay [10], 85%; in [4], 95%. Also, the pIC50 in [11] was over 5.00. On to `O=C1COc2cc(C(=O)N(Cc3cccs3)C3CC3)ccc2N1`, for which, in assay [12], the pKd was 5.47. With `Cc1cc(CN2CCC(N)CC2)cc(C)c1-c1ncn(C)c1-c1ccc(C#N)c2ccccc12`, the negative-log IC50 (pIC50) in assay [13] was 6.96; in [14], 5.20.

As to `COC[C@@]1(N)CCCN(c2cnc(-c3ccc(F)cc3F)cc2Cn2cnc3c(N)ncnc32)C1`, the pIC50 in [3] was 6.65. With `COc1ccc(-c2cc(Cn3cnc4c(N)ncnc43)c(N3CCC[C@](N)(COC4CCC4)C3)cn2)cc1F`, the pIC50 in assay [3] was 6.57. As for `N=C(N)NCCC[C@H](N)C(=O)NCCCCCCNC(=O)c1ccc(NC(=O)c2ccc(CN(C(=O)c3ccc4c(c3)OCC(=O)N4)C3CC3)cc2)cc1`, in [15], the Emax stood at 81%. Besides, the pEC50 in assay [16] is 5.92. For the same compound, the pKd in assay [17] was 7.85. In the case of `COC[C@@]1(N)CCCN(c2cnc(-c3ccc(F)c(F)c3)cc2Cn2cnc3c(N)ncnc32)C1`, the pIC50 in [3] is 6.80.

The pIC50 is −log10 of the IC50, conventionally taken in molar units. As a reminder, the inhibition is the relative decrease from the control value, in per cent. Lower therefore signals a weak effect. One may read the pKd as the negative decadic logarithm of the Kd, by convention in mol/L. As a reminder, the pEC50 is −log10 of the EC50, conventionally taken in molar units. As usually defined, the Emax is the maximal effect, on the per cent scale that the assay sets.
